Publication PMC7122770, “Potential endocrine disrupting properties of toys for babies and infants” (PLoS ONE, 2020)
Where a name gives a salt, the structure may show the parent alone. Read-outs that look alike come from different tables or passages of the source. One block for each molecule: values may come before it.

Legend:
[1] = biological target: T1, human estrogen receptor (Estrogen Receptor α) (Homo sapiens, UniProt P03372); experiment: Analysis of detected pure substances in ER-CALUX; assay type: cell-based; conditions: for % E2 max: mean of triplicates
T1 sequence (P03372 1-595): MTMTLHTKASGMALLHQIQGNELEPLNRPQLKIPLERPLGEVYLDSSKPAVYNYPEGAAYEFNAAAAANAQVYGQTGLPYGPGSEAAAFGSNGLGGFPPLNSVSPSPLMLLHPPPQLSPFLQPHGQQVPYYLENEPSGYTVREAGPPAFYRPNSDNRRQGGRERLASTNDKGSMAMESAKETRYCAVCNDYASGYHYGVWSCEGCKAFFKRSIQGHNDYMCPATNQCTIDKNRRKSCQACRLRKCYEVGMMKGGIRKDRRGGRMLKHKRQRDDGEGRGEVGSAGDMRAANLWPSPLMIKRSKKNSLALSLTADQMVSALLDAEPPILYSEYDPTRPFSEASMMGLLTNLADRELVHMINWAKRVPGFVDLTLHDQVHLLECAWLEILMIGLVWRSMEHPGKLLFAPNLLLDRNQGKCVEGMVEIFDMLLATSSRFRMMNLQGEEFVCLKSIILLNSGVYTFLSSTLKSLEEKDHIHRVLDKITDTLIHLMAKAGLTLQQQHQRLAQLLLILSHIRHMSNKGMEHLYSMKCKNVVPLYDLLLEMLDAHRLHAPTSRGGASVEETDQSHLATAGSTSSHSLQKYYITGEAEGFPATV

[2] = Toxicological reference values (TDI, ADI, reference dose); parameters: species or system human
Description: Risks were estimated by comparing the daily exposure (DE) to toxicological reference values (TRV) when available.

[3] = cited from earlier work
[4] = cited from earlier work; remark: listed apart in the source
[5] = tested on: U2-OS osteosarcoma cell line; experiment: Cytotoxic effects / cell viability in the CALUX cells; assay type: cell-based, human; conditions: two highest concentrations in ER-CALUX
[6] = pure substance in ER-CALUX, read-out: EC50
[7] = 2,50E-06 mol/l in bioassay medium
[8] = 5,00E-06 mol/l in bioassay medium
[9] = 2,50E-04 mol/l in bioassay medium
[10] = 5,00E-04 mol/l in bioassay medium
[11] = 5,00E-05 mol/l in bioassay medium

Compound: CC(C)C(=O)OCC(C)(C)C(OC(=O)C(C)C)C(C)C (centres unmarked) [2,2,4-Trimethyl-1,3-pentanediol diisobutyrate]
EC50 [1]: > 500 µM
Estrogen active [yes/no] ([1]; pure substance in ER-CALUX): no
Estrogen active [yes/no] ([1]; pure substance in ER-CALUX, listed as TXIB): negative

endocrine activity in the in vitro tests used in this study ([1]; pure substance): not endocrine active
Estrogen active [yes/no] ([1]; pure substance in ER-CALUX): no
EC50 [1, 6]: > 500 µM
Compound: CCCCCCCC/C=C\CCCCCCCCCCCC(N)=O [13-Docosenamide (Z)]

Compound: C#C[C@]1(O)CC[C@H]2[C@@H]3CCc4cc(O)ccc4[C@H]3CC[C@@]21C [17α-ethinyl estradiol, reference compound]
fold lower ADI than 17β-estradiol [2]: approximately 400 fold
acceptable daily intake (ADI) ([3]; adult person (60 kg), based on working place thresholds ref 40): 7 ng
in vitro estrogen activity compared with 17β-estradiol [4]: approximatively the same in vitro estrogen activity as the natural sex hormone 17β-estradiol

Compound: CCCCOC(=O)CC(CC(=O)OCCCC)(OC(C)=O)C(=O)OCCCC [Acetyl tributyl citrate (ATBC), Acetyl tributyl citrate]
estrogenic or androgenic activity ([4]; based on published data ref 2): does not seem to show estrogenic or androgenic activity

Compound: O=C(c1ccccc1)c1ccccc1 [Benzophenone]
tolerable daily intake (TDI) ([3]; recommended by the European Food Safety Agency ref 43): 30 μg/kg body weight per day

Compound: CC(C)(c1ccc(O)cc1)c1ccc(O)cc1 [Bisphenol A (BPA), Bisphenol A]
% E2 max [1, 7]: 151%
% E2 max [1, 8]: 154%
% E2 max ([1]; 5,00E-07 mol/l in bioassay medium): 116%
% E2 max ([1]; 5,00E-08 mol/l in bioassay medium): 11%
% E2 max ([1]; 5,00E-09 mol/l in bioassay medium): 5%
factor less estrogen active than the natural estrogen 17β-estradiol ([1]; based on response curves in ER-CALUX (Fig 2)): ~30.000
temporary tolerable daily intake (TDI) ([3]; recommended by EFSA, taking into account endocrine effects ref 43): 4 μg/kg body weight per day

Compound: CCOC(=O)c1ccccc1C(=O)OCC [Diethyl phthalate (DEP), Diethyl phthalate]
% E2 max [1, 9]: 47%
% E2 max [1, 7]: 9%
% E2 max [1, 10]: 69%
% E2 max [1, 11]: 23%
% E2 max [1, 8]: 10%
Estrogen active [yes/no] ([1]; pure substance in ER-CALUX): yes
EC50 [1, 6]: 200 µM

Estrogen active [yes/no] ([1]; pure substance in ER-CALUX): no
Estrogen active [yes/no] ([1]; pure substance in ER-CALUX, listed as DINCH): negative
EC50 [1, 6]: > 500 µM
Compound: CC(C)CCCCCCOC(=O)C1CCCCC1C(=O)OCCCCCCC(C)C (centres unmarked) [Diisononyl cyclohexane-1,2-dicarboxylate]
lowest reference value published [3]: 0.7 mg/kg bw/day

% E2 max [1, 9]: 8%
% E2 max [1, 7]: 4%
% E2 max [1, 10]: 3%
% E2 max [1, 11]: 34%
% E2 max [1, 8]: 6%
Estrogen active [yes/no] ([1]; pure substance in ER-CALUX): yes
Estrogen active [yes/no] ([1]; pure substance in ER-CALUX, listed as TBC): low, but significant estrogen activity
EC50 [1, 6]: 50 µM
Compound: CCCCOC(=O)CC(O)(CC(=O)OCCCC)C(=O)OCCCC [Tributyl citrate (TBC), Tributyl citrate]
cell viability [5]: decrease in cell viability
